Experiments:
[1] = tested on: microbial growth on the surface of beef carcass; assay: Microbiological analysis of low and high surface areas of beef carcass (Example 2)
Method: A 0.3% aqueous solution of chitosan formed as described above having 0.01% sodium sulfite and 0.1% acetic acid was poured into a commercial dry vapor steam cleaning unit and allowed to equilibrate for about 15 minutes. The steam was applied to a beef carcass by the method of […] as disclosed in U.S. Pat. No. 9,149,036 which is incorporated herein by reference in its entirety. For comparison, a beef carcass was sprayed with an aqueous solution of about 3% acetic acid by standard methods known in the art. Prior to applying the chitosan steam or the aqueous acetic acid solution, the beef carcasses were washed thoroughly with hot water. The beef carcasses were maintained at 4 degrees centigrade. Microbiological analysis was performed on the surface of the carcasses at pretreatment and at 1, 24, and 72 hours after treatment. […] The study in Example 1 was repeated, applying the previously-described 0.3% chitosan, acetic acid, and sodium sulfite solution on a low surface area and a high surface area of a beef carcass.

[2] = tested on: microbial growth on the surface of beef carcasses; assay: Microbiological analysis of beef carcass surface after treatment (Example 1)
Method: A 0.3% aqueous solution of chitosan formed as described above having 0.01% sodium sulfite and 0.1% acetic acid was poured into a commercial dry vapor steam cleaning unit and allowed to equilibrate for about 15 minutes. The steam was applied to a beef carcass by the method of […] as disclosed in U.S. Pat. No. 9,149,036 which is incorporated herein by reference in its entirety. For comparison, a beef carcass was sprayed with an aqueous solution of about 3% acetic acid by standard methods known in the art. Prior to applying the chitosan steam or the aqueous acetic acid solution, the beef carcasses were washed thoroughly with hot water. The beef carcasses were maintained at 4 degrees centigrade.

`CC(=O)O` [Water wash + acetic acid, acetic acid] was tested, and the microbial growth ([1]; High (A) surface, 1 h) was 1.59 log colony forming units, the microbial growth ([1]; High (A) surface, 48 h) was 1.35 log colony forming units and the microbial growth ([1]; High (A) surface, 168 h) was 1.49 log colony forming units. The microbial growth ([1]; High (B) surface, 1 h) was 2.03 log colony forming units, the microbial growth ([1]; High (B) surface, 48 h) was 1.80 log colony forming units and the microbial growth ([1]; High (B) surface, 168 h) was 1.77 log colony forming units. It also gave a microbial growth ([1]; High (C) surface, 1 h) of 1.88 log colony forming units, a microbial growth ([1]; High (C) surface, 48 h) of 1.65 log colony forming units and a microbial growth ([1]; High (C) surface, 168 h) of 1.43 log colony forming units. For the same molecule, the microbial growth ([1]; Low (A) surface, 1 h) was 1.53 log colony forming units, the microbial growth ([1]; Low (A) surface, 48 h) was 1.09 log colony forming units and the microbial growth ([1]; Low (A) surface, 168 h) was 0.00 log colony forming units. It also gave a microbial growth ([1]; Low (B) surface, 1 h) of 1.73 log colony forming units, a microbial growth ([1]; Low (B) surface, 48 h) of 1.57 log colony forming units and a microbial growth ([1]; Low (B) surface, 168 h) of 1.45 log colony forming units. The microbial growth ([1]; Low (C) surface, 1 h) was 0.43 log colony forming units, the microbial growth ([1]; Low (C) surface, 48 h) was 0.94 log colony forming units and the microbial growth ([1]; Low (C) surface, 168 h) was 1.35 log colony forming units. For the same molecule, the microbial growth ([2]; Flank, 0 h (pretreatment), 4 degrees centigrade) was 2.60 log colony forming units, the microbial growth ([2]; Flank, 1 h after treatment) was 2.10 log colony forming units and the microbial growth ([2]; Flank, 24 h after treatment) was 2.10 log colony forming units. It also gave a microbial growth ([2]; Flank, 72 h after treatment) of 2.00 log colony forming units, a microbial growth ([2]; Loin, 0 h (pretreatment), 4 degrees centigrade) of 3.70 log colony forming units and a microbial growth ([2]; Loin, 1 h after treatment) of 2.40 log colony forming units. It also gave a microbial growth ([2]; Loin, 24 h after treatment) of 1.80 log colony forming units and a microbial growth ([2]; Loin, 72 h after treatment) of 2.00 log colony forming units.

From patent publication US20220395003A1, “Methods for Use in Food Processing and Preservation” (priority 2019, published 2022)
